Results as given in patent publication US9018258B2, “Substituted 1-benzylcycloalkylcarboxylic acids and the use thereof” (Bayer Intellectual Property GmbH, priority 2010, dated 2015).

Tests used:
sGC = biological target: T1, sGC (Rattus norvegicus, UniProt P20595); test: Action at a recombinant guanylate cyclase reporter cell line (CHO reporter cell); type: cell-based; details: CHO reporter cell in vitro
T1 construct: expressed in transfected cells; host or cells: CHO reporter cell
Description: The cellular action of the compounds according to the invention is determined at a recombinant guanylate cyclase reporter cell line, as described in F. Wunder et al., Anal. Biochem. 339, 104-112 (2005).

[1] = biological target: T2, soluble guanylate cyclase (sGC) (Rattus norvegicus, UniProt P20595); test: Stimulation of sGC enzyme activity (PPi detection, luciferase); type: biochemical; details: sGC enzyme in vitro
T2 construct: made in house; host or cells: Sf9 insect cells (baculovirus)
T2 sequence (P19686 whole entry partner): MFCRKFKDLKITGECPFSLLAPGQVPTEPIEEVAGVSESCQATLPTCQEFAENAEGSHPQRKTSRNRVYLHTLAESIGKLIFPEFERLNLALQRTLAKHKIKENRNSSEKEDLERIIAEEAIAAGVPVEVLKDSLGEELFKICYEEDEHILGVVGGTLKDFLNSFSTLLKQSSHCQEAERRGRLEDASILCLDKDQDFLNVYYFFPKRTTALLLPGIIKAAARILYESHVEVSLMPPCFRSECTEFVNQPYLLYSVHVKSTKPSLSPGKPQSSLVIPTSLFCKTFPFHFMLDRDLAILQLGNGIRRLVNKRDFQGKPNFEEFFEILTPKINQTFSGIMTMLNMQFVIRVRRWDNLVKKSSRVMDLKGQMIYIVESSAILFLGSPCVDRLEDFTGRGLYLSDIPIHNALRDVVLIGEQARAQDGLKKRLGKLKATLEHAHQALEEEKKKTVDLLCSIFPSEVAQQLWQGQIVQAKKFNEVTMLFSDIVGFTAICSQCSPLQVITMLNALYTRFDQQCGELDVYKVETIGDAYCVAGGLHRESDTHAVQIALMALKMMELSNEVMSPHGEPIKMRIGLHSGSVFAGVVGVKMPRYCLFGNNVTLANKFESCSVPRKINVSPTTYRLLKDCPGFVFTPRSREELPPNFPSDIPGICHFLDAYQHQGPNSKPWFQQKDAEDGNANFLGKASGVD
T2 sequence (P20595 whole entry): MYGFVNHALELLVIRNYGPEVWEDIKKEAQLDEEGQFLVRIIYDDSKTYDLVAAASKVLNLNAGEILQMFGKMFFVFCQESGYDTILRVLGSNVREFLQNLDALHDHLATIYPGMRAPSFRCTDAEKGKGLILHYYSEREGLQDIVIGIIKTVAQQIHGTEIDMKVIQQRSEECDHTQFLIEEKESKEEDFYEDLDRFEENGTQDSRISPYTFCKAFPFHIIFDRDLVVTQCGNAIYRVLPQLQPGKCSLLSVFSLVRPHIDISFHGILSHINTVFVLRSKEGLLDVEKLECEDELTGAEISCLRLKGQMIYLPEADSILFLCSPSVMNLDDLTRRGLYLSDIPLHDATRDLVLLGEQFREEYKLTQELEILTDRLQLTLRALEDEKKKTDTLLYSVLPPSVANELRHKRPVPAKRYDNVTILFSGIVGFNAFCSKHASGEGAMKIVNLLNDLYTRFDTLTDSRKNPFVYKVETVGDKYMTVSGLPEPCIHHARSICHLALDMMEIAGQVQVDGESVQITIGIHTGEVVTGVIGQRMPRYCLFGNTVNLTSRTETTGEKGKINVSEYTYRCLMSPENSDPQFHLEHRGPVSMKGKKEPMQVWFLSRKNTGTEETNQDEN
Description: Soluble guanylate cyclase (sGC) converts on stimulation GTP into cGMP and pyrophosphate (PPi). PPi is detected with the aid of the assay described below. The signal produced in the assay increases as the reaction progresses and serves as a measure of the sGC enzyme activity under the given stimulation.
To carry out the assay, 29 μl of enzyme solution [0-10 nM soluble guanylate cyclase (prepared according to Honicka et al., J. Mol. Med. 77, 14-23 (1999)) in 50 mM TEA, 2 mM MgCl2, 0.1% BSA (fraction V), 0.005% Brij®, pH 7.5] are initially introduced into a microplate, and 1 μl of the substance to be tested (as a serially diluted solution in DMSO) is added. The mixture is incubated at room temperature for 10 min. Then 20 μl of detection mix [1.2 nM Firefly Luciferase (Photinus pyralis luciferase, Promega), 29 μM dehydroluciferin (prepared according to Bitler & McElroy, Arch. Biochem. Biophys. 72, 358 (1957)), 122 μM luciferin (Promega), 153 μM ATP (Sigma) and 0.4 mM DTT (Sigma) in 50 mM TEA, 2 mM MgCl2, 0.1% BSA (fraction V), 0.005% Brij®, pH 7.5] are added. The enzyme reaction is started by adding 20 μl of substrate solution [1.25 mM guanosine 5′-triphosphate (Sigma) in 50 mM TEA, 2 mM MgCl2, 0.1% BSA (fraction V), 0.005% Brij®, pH 7.5] and measured continuously in a luminometer. The extent of the stimulation by the substance to be tested can be determined relative to the signal of the unstimulated reaction.
The activation of haem-free guanylate cyclase is examined by addition of 25 μM of 1H-1,2,4-oxadiazolo[4,3-a]quinoxalin-1-one (ODQ) to the enzyme solution and subsequent incubation for 30 minutes and compared to the stimulation of the native enzyme.

GAL4-PPARα = biological target: T3, GAL4-PPARα (Homo sapiens, UniProt Q07869); test: Cellular PPAR transactivation assay, GAL4-PPARα chimera in CHO-K1 cells; type: cell-based; details: for Emax: CHO-K1, maximum effect relative to reference compound (Example 73 of EP 1 452 521-A1 = 100%), read-out: PPARα efficacy; for EC50: CHO-K1 cells, luciferase reporter, 6 h stimulation
T3 construct: expressed in transfected cells
T3 sequence (Q07869 167-468): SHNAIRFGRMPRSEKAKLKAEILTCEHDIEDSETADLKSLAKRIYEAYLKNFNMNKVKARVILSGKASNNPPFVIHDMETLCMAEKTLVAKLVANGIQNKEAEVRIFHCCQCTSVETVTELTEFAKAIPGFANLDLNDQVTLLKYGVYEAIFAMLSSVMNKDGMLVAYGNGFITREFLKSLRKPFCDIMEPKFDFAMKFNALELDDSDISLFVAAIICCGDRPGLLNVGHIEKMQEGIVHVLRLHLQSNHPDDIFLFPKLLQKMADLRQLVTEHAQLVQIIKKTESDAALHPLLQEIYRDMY
Source text: (§1) A cellular assay is used to test for potentially activating properties of the compounds according to the invention with respect to the three human isoforms of the peroxisome proliferator-activated receptors (PPARα, PPARγ and PPARδ).
(§2) Since mammalian cells contain different endogenous nuclear receptors which may complicate an unambiguous interpretation of the results, an established chimera system is used in which the respective ligand binding domain of the human PPAR isoforms is fused to the DNA binding domain of the yeast transcription factor GAL4. The resulting GAL4-PPARα, γ and δ chimeras are co-transfected and stably expressed in CHO cells having a reporter construct.
(§3) The GAL4-PPAR expression constructs contain the ligand binding domain of PPARα (amino acids 167-468), PPARγ (amino acids 203-506) and PPARδ (amino acids 138-442) which are PCR-amplified and cloned into the vector pcDNA3.1. The respective expression vectors already contain the GAL4 DNA binding domain (amino acids 1-147) of the vector pFC2-dbd (Stratagene). The reporter construct, which contains five copies of the GAL4 binding site upstream of a thymidine kinase promoter, expresses firefly luciferase (Photinus pyralis) following activation and binding of GAL4-PPARα, γ or δ.
(§4) The day before the test, CHO-K1 cells (chinese hamster ovary; ATCC CCL-61) each stably expressing one of the above-described GAL4-PPAR chimeras and the luciferase reporter gene construct are sown in medium [Optimem (GIBCO) with 2% activated carbon-purified foetal calf serum (Hyclone), 1.35 mM sodium pyruvate (GIBCO) and 0.2% sodium bicarbonate (GIBCO)] in a density of 1×10^3 cells in 96-well microtitre plates (Greiner) and kept in a cell incubator (96% atmospheric humidity, 5% v/v CO2, 37° C.). On the test day, the substances to be tested are taken up in the medium mentioned above, but without addition of calf serum, and added in various concentrations to the cells. After a stimulation period of 6 h, the luciferase activity is measured using a video camera. The relative light units measured give, as a function of the substance concentration, a sigmoidal stimulation curve. The EC50 values are calculated using the computer programme GraphPad PRISM (Version 3.02). The maximum effect of a test substance in the respective PPAR assay is determined as efficacy in percent in comparison to an appropriate reference compound whose maximum effect is defined as 100%.
(§5) The reference compound selected here was the compound 2-(3-{[(2-chloro-4-propoxybenzoyl)-amino]methyl}-4-ethoxybenzyl)tetrahydrofuran-2-carboxylic acid [Example 73 of EP 1 452 521-A1] which is described in the prior art as a potent pan-PPAR agonist.

GAL4-PPARγ = biological target: T4, GAL4-PPARγ (Homo sapiens, UniProt P37231); test: Cellular PPAR transactivation assay, GAL4-PPARγ chimera in CHO-K1 cells; type: cell-based; details: for Emax: CHO-K1, maximum effect relative to reference compound (Example 73 of EP 1 452 521-A1 = 100%), read-out: PPARγ efficacy; for EC50: CHO-K1 cells, luciferase reporter, 6 h stimulation
T4 construct: PPARγ (amino acids 203-506); expressed in transfected cells
T4 sequence (P37231 203-505 limits assumed): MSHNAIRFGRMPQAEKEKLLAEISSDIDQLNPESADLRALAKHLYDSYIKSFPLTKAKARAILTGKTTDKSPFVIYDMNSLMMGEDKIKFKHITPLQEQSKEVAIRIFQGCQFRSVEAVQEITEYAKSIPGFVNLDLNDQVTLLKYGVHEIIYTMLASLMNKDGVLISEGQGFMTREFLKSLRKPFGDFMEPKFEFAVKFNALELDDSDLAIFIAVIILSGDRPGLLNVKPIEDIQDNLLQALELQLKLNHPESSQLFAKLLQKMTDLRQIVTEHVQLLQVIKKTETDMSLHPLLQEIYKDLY
Source text: as §1, §2, §3, §4, §5

GAL4-PPARδ = biological target: T5, GAL4-PPARδ (Homo sapiens, UniProt Q03181); test: Cellular PPAR transactivation assay, GAL4-PPARδ chimera in CHO-K1 cells; type: cell-based; details: for Emax: CHO-K1, maximum effect relative to reference compound (Example 73 of EP 1 452 521-A1 = 100%), read-out: PPARδ efficacy; for EC50: CHO-K1 cells, luciferase reporter, 6 h stimulation
T5 construct: PPARδ (amino acids 138-442); expressed in transfected cells
T5 sequence (Q03181 138-441 limits assumed): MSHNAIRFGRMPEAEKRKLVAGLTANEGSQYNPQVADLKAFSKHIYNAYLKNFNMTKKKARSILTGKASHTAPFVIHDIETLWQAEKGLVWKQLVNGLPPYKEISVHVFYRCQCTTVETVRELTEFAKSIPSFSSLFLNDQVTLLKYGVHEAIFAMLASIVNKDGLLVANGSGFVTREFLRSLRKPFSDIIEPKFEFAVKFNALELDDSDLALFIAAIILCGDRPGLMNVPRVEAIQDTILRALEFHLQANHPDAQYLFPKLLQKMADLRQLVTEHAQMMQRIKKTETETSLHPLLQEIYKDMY
Source text: as §1, §2, §3, §4, §5

T1 sequence (P19686 whole entry partner): as the sequence (P19686 whole entry partner) above
T1 sequence (P20595 whole entry): as the sequence (P20595 whole entry) above

MEC (minimum effective concentration), sGC-activating activity in the CHO reporter cell (sGC) [nM] | MEC (minimum effective concentration), activating action at the sGC enzyme [1] [nM] | EC50 ([1]; read-out: EC50 (concentration at 50% of maximum efficacy), activating action at the sGC enzyme) [nM] | Emax (GAL4-PPARα) [%] | EC50 (GAL4-PPARα) [nM] | Emax (GAL4-PPARγ) [%] | EC50 (GAL4-PPARγ) [nM] | Emax (GAL4-PPARδ) [%] | EC50 (GAL4-PPARδ) [nM] | Effect in the cellular PPAR transactivation test (in words) (GAL4-PPARα; statement covers the PPARα, PPARγ and PPARδ test) | SMILES
1 | 2.2 | 30 | – | – | – | – | – | – | – | O=C(Nc1cc(CC2(C(=O)O)CC2)ccc1F)[C@H](c1ccc(Cl)cc1)C1CCCC1 (single isomer, unassigned) [Example 62]
3 | – | – | 0 | > 10000 | 20 | 460 | 0 | > 10000 | – | C[C@H]([C@H](C(=O)Nc1cc(CC2(C(=O)O)CC2(F)F)ccc1Cl)c1ccc(Cl)cc1)C(F)(F)F (single isomer, unassigned; (+)) [Example 71]
– | – | – | 0 | > 1000 | 0 | > 1000 | 10 | > 1000 | virtually ineffective | COc1ccc(CC2(C(=O)O)CC2)cc1CNC(=O)c1ccc(Cl)cc1Cl [Example 11 of EP 1 452 521-A1, 1-(3-{[(2,4-dichlorobenzoyl)amino]methyl}-4-methoxybenzyl)cyclopropanecarboxylic acid, reference compound]
3 | – | – | 0 | > 10000 | 10 | 4000 | 0 | > 10000 | – | Cc1ccc(CC2(C(=O)O)CC2)cc1NC(=O)[C@H](c1ccc(Cl)cc1)[C@@H](C)C(F)(F)F [Example 33, 1-(3-{[(2S,3R)-2-(4-chlorophenyl)-4,4,4-trifluoro-3-methylbutanoyl]amino}-4-methylbenzyl)-cyclopropanecarboxylic acid]
0.3 | – | – | 0 | > 10000 | 0 | > 10000 | 0 | > 10000 | – | C[C@H]([C@H](C(=O)Nc1cc(CC2(C(=O)O)CC2)ccc1F)c1ccc(C(C)(F)F)cc1)C(F)(F)F [Example 38, 1-[3-({(2S,3R)-2-[4-(1,1-difluoroethyl)phenyl]-4,4,4-trifluoro-3-methylbutanoyl}amino)-4-fluorobenzyl]cyclopropanecarboxylic acid]
0.3 | – | – | 0 | > 10000 | 10 | 120 | 0 | > 10000 | – | C[C@H]([C@H](C(=O)Nc1cc(CC2(C(=O)O)CC2)ccc1F)c1ccc(C2CC2)cc1)C(F)(F)F [Example 40, 1-(3-{[(2S,3R)-2-(4-cyclopropylphenyl)-4,4,4-trifluoro-3-methylbutanoyl]amino}-4-fluorobenzyl)cyclopropanecarboxylic acid]
3 | – | – | 0 | > 10000 | 10 | 2000 | 0 | > 10000 | – | COc1cc([C@@H](C(=O)Nc2cc(CC3(C(=O)O)CC3)ccc2F)[C@@H](C)C(F)(F)F)ccc1Cl [Example 42, 1-(3-{[(2S,3R)-2-(4-chloro-3-methoxyphenyl)-4,4,4-trifluoro-3-methylbutanoyl]amino}-4-fluorobenzyl)cyclopropanecarboxylic acid]
0.3 | – | – | 0 | > 10000 | 0 | > 10000 | 0 | > 10000 | – | C[C@H]([C@H](C(=O)Nc1cc(CC2(C(=O)O)CC2)ccc1Cl)c1ccc(C(C)(C)C(F)(F)F)cc1)C(F)(F)F [Example 44, 1-[4-chloro-3-({(2S,3R)-4,4,4-trifluoro-3-methyl-2-[4-(1,1,1-trifluoro-2-methylpropan-2-yl)phenyl]-butanoyl}amino)benzyl]cyclopropanecarboxylic acid]
– | – | – | 100 | 5.3 | 100 | 8.9 | 100 | 8.4 | – | CCCOc1ccc(C(=O)NCc2cc(CC3(C(=O)O)CCCO3)ccc2OCC)c(Cl)c1 (stereo not shown) [Example 73 of EP 1 452 521-A1, 2-(3-{[(2-chloro-4-propoxybenzoyl)amino]-methyl}-4-ethoxybenzyl)tetrahydrofuran-2-carboxylic acid, reference compound]
